Experimental findings from patent US10647680B2, “Urea compound, preparation method therefor and medical use thereof” (Ancureall Pharmaceutical (Shanghai) Co., Ltd., priority 2016, dated 2020) are described below.

Counter-ions that a name gives are not always drawn.

A short description of one series: Solubility test. The class given is physicochemical. Particulars: in water at 25° C.±2° C. The method, then: The fine powder of the test sample was weighed into an appropriate amount of water at 25° C.±2° C. and shaken vigorously for 30 seconds every 5 minutes so that it was fully dissolved within 30 minutes. If no visible solute particles were observed, it was considered completely dissolved. “Readily soluble” means that 1 g of the test sample could be dissolved in 1-10 ml of water; and “soluble” means that 1 g of the test sample could be dissolved in 10-30 ml of water; “slightly soluble” means that 1 g of the test sample could be dissolved in 30-100 ml of water; and “sparingly soluble” means that 1 g of the test sample could be dissolved in 100-1,000 ml of water; “nearly insoluble or insoluble” means that 1 g of the test sample could not be completely dissolved in 10,000 ml of water.

Series [1] can be described thus: Stability test: high temperature test (60° C.). The class given is physicochemical. Particulars: exposed at 60° C. for 10 days, HPLC. The method, then:
The test samples were placed into an integrated drug stability test chamber (YSEI) in an exposed way at 60° C. for 10 days. Samples were taken on the 5th and 10th days and tested according to the drug stability test indices.
(§1) An appropriate amount of test samples was taken and dissolved in acetonitrile-water (1:1), and quantitatively diluted to a solution of about 0.3 mg/ml. 20 ul of solution was injected into a liquid chromatograph (Agilent 1260 Infinity), the chromatogram was then recorded and calculated according to the percentage area method. The mobile phase was a phosphate buffer and acetonitrile aqueous solution, and then a gradient elution was carried out.

Series [2] can be described thus: Stability test: intense light test (4500LX). It is filed as physicochemical. Particulars: 4500LX±500LX light for 10 days, HPLC. The method, then: The test samples were placed into an integrated drug stability test chamber (YSEI) in an exposed way under 4500LX±500LX light for 10 days. Samples were taken on the 5th and 10th days and tested according to the drug stability test indices.
as §1

A short description of series [3]: Stability test: high humidity test (90%). It is filed as physicochemical. Particulars: 25° C., relative humidity 90%±5%, 10 days, HPLC. The method, then: The test samples were placed into an integrated drug stability test chamber (YSEI) in an exposed way at 25° C. and relative humidity of 90%±5% for 10 days. Samples were taken on the 5th and 10th days and tested according to the drug stability test indices.
as §1

A further series concerns rat plasma protein. Nature of the series: Binding rate to plasma protein of rats (dialysis method). It is filed as in vitro ADME. The following applies: dialysis, 4 h, 37° C.; test substance 2 uM, positive control 1 uM. The method, then:
The binding rate of compound 77 of the present invention to plasma protein at a rat plasma concentration of 2 uM was evaluated by dialysis method.
Procedure: The DMSO stock solution of compound 77 (10 mM) or the positive control propranolol (USP) was added to 500 uL of blank plasma. The final concentration of test substance in the plasma was 2 uM, and the final concentration of the positive control was 1 uM, in triplicate. 300 uL of prepared plasma samples was added to the plasma chamber, and 500 uL of dialysis buffer was added to the buffer chamber (phosphate buffer solution PBS contained 100 mM sodium phosphate and 150 mM sodium chloride, PH 7.2), sealed, and incubated for 4 h while shaking at 100 rpm, 37° C. After incubation, 50 uL sample was taken from the plasma chamber and buffer chamber, and 50 uL of PBS was added to plasma chamber samples, and 50 uL of blank plasma was added to the buffer chamber samples. Immediately, 3-fold methanol solution containing internal standard was added, to precipitate plasma protein. After centrifugation, the supernatant was taken for LC/MS/MS analysis. The plasma protein binding rate was calculated according to the following formula: % free state=(peak area ratio in the buffer chamber/the peak area ratio in the plasma chamber)×%, % binding state=100%−% free state.

The subject of series [4] is MV4-11 (FLT3 ITD+/+ mutant type). Nature of the series: In vitro growth inhibition (GI50), MV4-11. The class given is cell-based, human. Particulars: Homo sapiens, MV4-11; Cell lines of leukemia; read-out: GI 50 MV4-11 FLT3 (ITD +/+).
Series [5] concerns MOLM-13 (FLT3 ITD+/− mutant type). The experiment in a line: In vitro growth inhibition (GI50), MOLM-13. The class given is cell-based, human. The following applies: Homo sapiens, MOLM-13; Cell lines of leukemia; read-out: GI 50 MOLM-13 FLT3 (ITD+/−).
Another series has as its system RS4; 11 (FLT3 wild type). The experiment in a line: In vitro growth inhibition (GI50), RS4; 11. The following applies: Homo sapiens, RS4-11; Cell lines of leukemia; read-out: GI 50 RS4: 11 FLT3 (WT). The class given is cell-based, human.
Series [6] relates to K562 (FLT3 negative expression, positive expression of BCR-ABL fusion protein). Nature of the series: In vitro growth inhibition (GI50), K562. Particulars: Homo sapiens, Cell lines of leukemia, read-out: GI 50 K562 BCR-ABL. It is filed as cell-based.
Series [7] relates to RAMOS (positive expression of Brutons tyrosine protein kinase). The experiment in a line: In vitro growth inhibition (GI50), RAMOS. The class given is cell-based. The following applies: Homo sapiens, Cell lines of leukemia, read-out: GI 50 Ramos BTK.
The test system of a further series is U937 (FLT3 wild-type). The experiment in a line: In vitro growth inhibition (GI50), U937. The following applies: Homo sapiens, U-937; Cell lines of leukemia; read-out: GI 50 U937 FLT 3(WT). The class given is cell-based.
In series [8] the test system is Kasumi-1 (c-Kit N822K mutant type). The experiment in a line: In vitro growth inhibition (GI50), Kasumi-1. It is filed as cell-based. The following applies: Homo sapiens, Cell lines of leukemia, read-out: GI 50 Kasumi-1 Kit (N822K). The procedure, abridged: (§2)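 After 3–5 days of treatment (top concentration 5,000 nM, serially diluted 2- or 10-fold to 0.01 nM, solvent ≤1%), viability was read by CCK8 at OD450. Growth rate was normalised to the time-zero and solvent-control wells, and GI50 was derived from the curve. Cultures in RPMI1640 + 10% FBS.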

The test system of series [9] is KG-1 (expressing FGFR1OP2-FGFR1 fusion protein). The experiment in a line: In vitro growth inhibition (GI50), KG-1. It is filed as cell-based. The following applies: Homo sapiens; Cell lines of leukemia; read-out: GI 50 KG-1 FGFR1OP 2-FGFR1.
In a further series the test system is HL-60 (FLT3 wild type). The experiment in a line: In vitro growth inhibition (GI50), HL-60. The class given is cell-based. Particulars: Homo sapiens, Cell lines of leukemia, read-out: GI 50 HL60 FLT3 (WT). The procedure, abridged: as §2
Series [10] concerns OCI-AML3 (NPMc+ mutant type). The experiment in a line: In vitro growth inhibition (GI50), OCI-AML3. It is filed as cell-based. The following applies: Homo sapiens, OCI-AML-3; Cell lines of leukemia; read-out: GI 50 OCI- AML3 NPMc+.

As to `COc1ccc2c(c1)ncn2-c1ccc(NC(=O)Nc2cc(C(C)(C)C)n[nH]2)cc1` [Compound 71 Mesylate, 1-(5-tert-butyl-2H-pyrazol-3-yl)-3-[4-(5-methoxyl-benzimidazol-1-yl)-phenyl]-urea], in “Solubility test” (listed as 71 Mesylate), the Solubility result is “soluble (“soluble” means that 1 g of the test sample could be dissolved in 10-30 ml of water)”. For the same compound, in [1], the “High temperature (60° C.)” value is on record as “stable”. Moreover, the “Lighting (4500 LX)” value in series [2] is recorded as “stable”. Also, in series [3], the “High Humidity (90%)” value was “stable”.
As to `CC(C)(C)c1cc(NC(=O)Nc2ccc(-n3cnc4cc(OCCN5CCOCC5)ccc43)cc2)no1` [Compound 16 Hydrochloride, 1-(5-tert-butyl-isoxazol-3-yl)-3-{4-[5-(2-morpholin-4-yl-ethoxyl)-benzimidazol-1-yl]-phenyl}-urea], in “Solubility test” (listed as 16 Hydrochloride), the Solubility result is on record as “soluble (“soluble” means that 1 g of the test sample could be dissolved in 10-30 ml of water)”. Also, the “High temperature (60° C.)” value in series [1] is given as “stable”. For the same compound, in series [2], the “Lighting (4500 LX)” value was “stable”. In addition, the “High Humidity (90%)” value in [3] was “stable”.
On to `CC(C)NCC(O)COc1cccc2ccccc12` (stereo not drawn) [propranolol, reference compound], for which, in the series with rat plasma protein, the “binding rate to the rat plasma protein” value stood at 90.11%.
For `CC(C)(C)c1cc(N)n(C(=O)Nc2ccc(-n3cnc4cc(OCCO)ccc43)cc2)n1` [Compound 121, 5-amino-3-tert-butyl-pyrazol-1-carboxylic acid {4-[5-(2-hydroxy-ethoxyl)-benzimidazol-1-yl]-phenyl}-amide], the Solubility result in the series “Solubility test” (listed as 121 Free base) is given as “insoluble (“nearly insoluble or insoluble” means that 1 g of the test sample could not be completely dissolved in 10,000 ml of water)”. The GI50 was 0.1 to 1 µM in series [4]; 0.1 to 1 µM in series [5]; more than 1 µM in the series with RS4; 11 (FLT3 wild type); more than 1 µM in series [6]; more than 1 µM in series [7]; more than 1 µM in the series on U937 (FLT3 wild-type). For the same compound, the GI50 (in [8]; in series [9]; in the series with HL-60 (FLT3 wild type); in series [10]) was more than 1 µM throughout.
For `COCCOc1ccc2ncn(-c3ccc(NC(=O)Nc4cc(C(C)(C)C)n[nH]4)cc3)c2c1` [Compound 98, 1-(5-tert-butyl-2H-pyrazol-3-yl)-3-{4-[6-(2-methoxyl-ethoxyl)-benzimidazol-1-yl]-phenyl}-urea], the Solubility result in “Solubility test” (listed as 98 Free base) is on record as “insoluble (“nearly insoluble or insoluble” means that 1 g of the test sample could not be completely dissolved in 10,000 ml of water)”. The GI50 in [4] was 0.0001 to 0.001 µM; in [5], 0.0001 to 0.001 µM; with RS4; 11 (FLT3 wild type), more than 1 µM; in series [6], more than 1 µM; in [7], more than 1 µM; with U937 (FLT3 wild-type), more than 1 µM. In addition, the GI50 (in series [8]; in series [9]; with HL-60 (FLT3 wild type); in series [10]) was more than 1 µM throughout.
For `COc1cc2ncn(-c3ccc(NC(=O)n4nc(C(C)(C)C)cc4N)cc3)c2cc1OC` [Compound 129, 5-amino-3-tert-butyl-pyrazol-1-carboxylic acid [4-(5,6-dimethoxyl-benzimidazol-1-yl)-phenyl]-amide], the Solubility result in “Solubility test” (listed as 129 Free base) was “insoluble (“nearly insoluble or insoluble” means that 1 g of the test sample could not be completely dissolved in 10,000 ml of water)”. For the same compound, the GI50 in series [4] was 0.001 to 0.01 µM; in series [5] it was 0.001 to 0.01 µM; in the series on RS4; 11 (FLT3 wild type) it was more than 1 µM; in series [6], more than 1 µM; in series [7], more than 1 µM; in the series on U937 (FLT3 wild-type), more than 1 µM. Besides, the GI50 (in [8]; in series [9]; in the series with HL-60 (FLT3 wild type); in series [10]) was more than 1 µM throughout.
